Series [1] is described as follows: In-vivo pharmacokinetics in rats, oral administration. Further details: species or system male SD rats. The settings on record: for AUC(0-inf) / Cmax / half-life: male, SD, rat, oral 10 mg/kg, plasma; for F: oral 10 mg/kg vs intravenous 1 mg/Kg. Here is the method: In this experimental example, the in-vivo pharmacokinetic evaluation was made for rats by intravenous injection and oral administration.
(§1) Experimental methods and conditions: male SD rats, 6 to 8 weeks old; all animals had free access to food and water; 5 min, 15 min, 30 min, 1 hr, 2 hr, 4 hr, 8 hr, 24 hr and 48 hr after the rats were subjected to a single intravenous injection of 1 mg/Kg of a compound to be tested (solvent 5% DMSO/15% Solutol/80% Saline), or 15 min, 30 min, 1 hr, 2 hr, 4 hr, 6 hr, 8 hr, 24 hr and 48 hr after the rats were subjected to oral intragastric administration of 10 mg/kg (solvent 5% DMSO/10% Solutol/85% Saline), blood was collected from orbits, not less than 50 μL of each sample was collected, and heparin sodium was used for anticoagulation; the collected samples were placed on ice, and the plasma was centrifugally separated within 1 hour for testing. The drug concentration in the plasma was detected by liquid chromatography tandem mass spectrometry (LC/MS/MS), and the pharmacokinetic parameters were calculated by Phoenix WinNonlin software. Embodiment 82 in CN110612294 A was taken as a control sample 1.

Series [2] in a line: In-vivo pharmacokinetics in dogs, oral administration. The arrangement: species or system male Beijing Marshall beagles. The settings on record: for AUC(0-inf) / Cmax / half-life: male, beagle, dog, oral 10 mg/kg, plasma; for F: oral 10 mg/kg vs intravenous 1 mg/Kg. Here is the method:
In this experimental example, the in-vivo pharmacokinetic evaluation was made for dogs by intravenous injection and oral administration.
Experimental methods and conditions: male Beijing Marshall beagles, 12 to 18 months old; the beagles were subjected to administration half an hour after feeding; 5 min, 15 min, 30 min, 1 hr, 2 hr, 4 hr, 8 hr, 24 hr, 48 hr and 72 hr after the beagles were subjected to a single intravenous injection of 1 mg/Kg of a compound to be tested (solvent 5% DMSO/10% Solutol/85% Saline), or 15 min, 30 min, 1 hr, 2 hr, 4 hr, 6 hr, 8 hr, 24 hr, 48 hr and 72 hr after the beagles were subjected to oral intragastric administration of 10 mg/kg (solvent 5% DMSO/10% Solutol/85% Saline), blood was collected from orbits, not less than 50 μL of each sample was collected, and heparin sodium was used for anticoagulation; the collected samples were placed on ice, and the plasma was centrifugally separated within 1 hour for testing. The drug concentration in the plasma was detected by liquid chromatography tandem mass spectrometry (LC/MS/MS), and the pharmacokinetic parameters were calculated by Phoenix WinNonlin software. Embodiment 82 in CN110612294 A was taken as a control sample 1.

Series [3] is described as follows: In-vivo pharmacokinetics in mice, oral administration. The arrangement: species or system male CD1 mice. The settings on record: for AUC(0-inf) / Cmax / half-life: male, CD1, mouse, oral 10 mg/kg, plasma; for F: oral 10 mg/kg vs intravenous 1 mg/Kg. Here is the method: In this experimental example, the in-vivo pharmacokinetic evaluation was made for mice by intravenous injection and oral administration.
as §1, with “male CD1 mice,” for “male SD rats,”, “8” for “8 hr, 24”, “and 24” for “and 48”, “the mice” for “the rats”, “Solutol/80% Saline) (saline in the present application all means a saline solution),” for “Solutol/80% Saline),”

A further series concerns VCaP cells. Briefly: Inhibitory effect on VCaP cell proliferation (Cell Titer Glo). The settings on record: Homo sapiens, 144 h; for IC50: VCaP cells, 5% FBS and 0.1 nM R1881, 6 days; for Emax: maximum degree of VCaP cell proliferation inhibition, 6 days. It is filed as cell-based. How it is done:
A tumor cell line Vcap (ATCC Cat. No. CRL-2876) was respectively cultured with DMEM (Gibco Cat. No. 11965-092) medium containing 10% FBS (Gibco Cat. No. 10099-141C). During testing, Vcap cells were replaced with a DMEM culture fluid containing 5% FBS and 0.1 nM R1881 (Sigma Cat. No. R0908). The assay method was as follows:
Vcap cells were seeded to a 384-well plate (Perkin Elmer Cat. No. 6007460) at a cell density of 1200 cells/well and a volume of 20 μL/well; after the cells were incubated overnight in a carbon dioxide incubator (Thermo), the prepared compound solutions with different concentrations were added at a volume of 5 μL/well; meanwhile, a corresponding solvent was provided as a control; after the cells were continuously incubated in the incubator for 6 days, the cell plate and the contents thereof were equilibrated to room temperature; 25 μL of a Cell Titer Glor (Promega Cat. No. G7573) reagent was added to each well; after vibration and uniform mixing, incubation in the dark was performed for 10-30 minutes, and a signal value was detected with Envision microplate reader (PerkinElmer).
A percentage inhibition rate of compound-treated wells was calculated through solvent control wells on the plate, GraphPad prism was used to fit the percentage inhibition rate data corresponding to different concentrations, and IC50 value was calculated by a 4-parameter nonlinear logistic formula.
Emax: a maximum degree of VCaP cell proliferation inhibition. IC50: a compound concentration required to achieve half the maximum degree of VCaP cell proliferation inhibition.
For orientation: Cellular ATP, detected with luciferase, serves as a proxy for viable cell number.

For orientation: AUC(0-inf) means the area under the concentration-time curve extrapolated to infinity. Higher therefore signals more exposure. Usually Cmax stands for the maximum level reached in the sampled fluid or tissue. In general, half-life refers to the time in which the quantity being followed falls by half. Read a low half-life as rapid decline. A word on the IC50: it is the concentration that gives 50% inhibition.

Take `CC1(C)[C@H](NC(=O)c2ccc(N3CCC(CN4CCN(c5ccc6c(=O)n(C7CCC(=O)NC7=O)ncc6c5)CC4)CC3)cc2)C(C)(C)[C@H]1Oc1ccc(C#N)c(Cl)c1` (some centres unmarked) [Compound 1]: in series [1], the AUC(0-inf) worked out at 2.65 µg·h/mL, the concentration peaked (Cmax) at 0.147 µg/mL, the half-life was 7.62 h and the F is 11.9%. In series [2], this molecule showed an AUC(0-inf) of 14.1 µg·h/mL, a Cmax of 0.482 µg/mL, a half-life of 19.9 h and an F of 44.1%. In addition, in series [3], the AUC(0-inf) came out at 18.9 µg·h/mL, the highest level (Cmax) was 1.26 µg/mL, the half-life was 6.22 h and the F is 68.8%.

In series [1], `CC1(C)[C@H](NC(=O)c2ccc(N3CCC(CN4CCN(c5ccc6c(=O)n([C@H]7CCC(=O)NC7=O)ncc6c5)CC4)CC3)cc2)C(C)(C)[C@H]1Oc1ccc(C#N)c(Cl)c1` [Compound 28A] showed an AUC(0-inf) of 3.21 µg·h/mL, a Cmax of 0.173 µg/mL, a half-life of 8.28 h and an F of 5.13%. In addition, in the series on VCaP cells, half-maximal inhibition (IC50) required 0.0097 µM and the Emax came to 74%. In series [2], the AUC(0-inf) amounted to 15.4 µg·h/mL, the highest level (Cmax) was 0.868 µg/mL, the half-life was 34.3 h and the F is 33.9%.

In series [1], `CC1(C)[C@H](NC(=O)c2ccc(N3CCC(CN4CCN(c5ccc6c(=O)n(C7CCC(=O)NC7=O)nc(F)c6c5)CC4)CC3)cc2)C(C)(C)[C@H]1Oc1ccc(C#N)c(Cl)c1` (some centres unmarked) [Compound 29] showed an AUC(0-inf) of 6.2 µg·h/mL, a Cmax of 0.253 µg/mL, a half-life of 13.4 h and an F of 11.9%. In the series with VCaP cells, this molecule had an IC50 of 0.056 µM and an Emax of 66%. In series [3], this molecule had an AUC(0-inf) of 13.4 µg·h/mL, a Cmax of 0.677 µg/mL, a half-life of 7.91 h and an F of 24.1%.

These data come from patent publication US12234223B2, “Phthalazinone compound, and preparation method therefor and medical use thereof” (SHANGHAI JEMINCARE PHARMACEUTICALS CO., LTD, priority 2020, dated 2025).
